One series can be described thus: in vitro. The following applies: dog.
For series [1] the following is noted: administered by injection or infusion; cited from earlier work.
The nature of series [2]: Clinical testing of inhalation: cough and shortness of breath. The format is in vivo, human. The text has this:
Mu and delta receptors are found in the cough centre of the medulla, and systemic application of […] of these receptors inhibits the cough reflex. This usually also affects other organs and zones of the brain that contain opioid receptors. Additionally, since receptors of this group are found in peripheral neural pathways, Dalargin can also affect the conduction of signals along these neural pathways. Dalargin inhalation mostly produces local effects of short-lived metabolites of the peptide on peripheral opioid receptors, which manifests itself in reduced response of receptor cells to stimulation and reduced intensity of the signal transmitted to the cough centre. […] A certain local analgesic effect also improves the overall condition of the patient. […] This, in turn, alleviates the irritation of the respiratory tract, reduces the loss of the inhaled product due to coughing and improves the patients' quality of life.
Shortness of breath is one of the most common symptoms of VRIs. The patient is often unable to perform the most basic actions without experiencing shortness of breath, panting, and a sensation of lacking air. Descriptions of various methods of the treatment of shortness of breath report positive effects of systemic administration of certain opioid receptor agonists. […] Systemically administered opioids are also recommended for treating shortness of breath in such patients, but side effects may limit their use. Despite the positive effect, uses of such therapies are severely limited due to typical side effects and restrictions on the sales of opioid drugs. Inhalation of Dalargin is additionally associated with improved quality of respiration. […] Unlike classical opioids, these metabolites are short-lived and only act locally, in the zone where the inhaled aerosol is deposited in the lungs, predominantly in the larynx, bronchi and trachea.

SMILES strings stand for the structures. Square brackets hold non-standard residues; d marks the D form. Peptide text beside a SMILES is read from it. A value given as a limit tells only on which side of the number the result lay.

Turning to `CC(C)C[C@H](NC(=O)[C@H](Cc1ccccc1)NC(=O)CNC(=O)[C@@H](C)NC(=O)[C@@H](N)Cc1ccc(O)cc1)C(=O)N[C@@H](CCCNC(=N)N)C(=O)O` [Dalargin, tyrosyl-D-alanyl-glycyl-phenylalanyl-leucyl-arginine diacetate] (H-Y[dA]GFLR-OH), in the series “in vitro”, the CC50 is no less than 30 µg/mL. For the same molecule, in series [1], the Mean elimination half-life was 12 min. Moreover, in series [2], the “Duration of reduced coughing severity” value was 2 to 4 h. In addition, the “Cough reported by patients” value in series [2] (clinical testing) is on record as “alleviation or elimination of cough”. Besides, in series [2] (investigational clinical use), the Shortness of breath entry is “significantly reduced shortness of breath”.

The record behind these values is patent US20210346459A1, “Application of Dalargin for the prevention of VRIs and prevention of the development of complications during VRIs” (priority 2020, published 2021).
